Assay results: PMC11249646, “Small-Molecule Disruptors of the Interaction between Calcium- and Integrin-Binding Protein 1 and Integrin αIIbβ3 as Novel Antiplatelet Agents” (ACS Pharmacology & Translational Science, 2024)
pIC50: −log10 of the molar value. Where two headings read alike, the source gives them in different places.

Target: T1, CIB1 and αIIb interaction (CIB1-GST : F-αIIb peptide) (Homo sapiens, UniProt Q99828)
T1 construct: made in house; host or cells: BL-21 plus RIL cells (E. coli)
T1 sequence (Q99828 1-191): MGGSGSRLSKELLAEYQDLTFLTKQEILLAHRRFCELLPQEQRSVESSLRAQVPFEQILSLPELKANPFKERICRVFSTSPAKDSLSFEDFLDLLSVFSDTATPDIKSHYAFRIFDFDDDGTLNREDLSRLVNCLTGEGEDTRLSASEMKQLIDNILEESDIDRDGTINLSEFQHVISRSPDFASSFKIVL
Test: FP assay, 1536-well qHTS format (primary and confirmatory screen)
Assay type: binding
Settings: for Efficacy (%): negative = inhibition; for Curve Class: negative sign = inhibitory curve; for pIC50: read-out: IC50

[1] = qHTS primary screen of LOPAC/NPACT libraries
[2] = qHTS primary screen hits, Table S2
[3] = qHTS primary screen hits, Table S2, several classes where COUNT > 1

Row | Structure (SMILES) | Efficacy (%) [1] | Curve Class [1] | pIC50 [1] | Efficacy (%) [2] | pIC50 [2] | Curve Class [3] | other results
1 | C/C(=C\c1ccc(C(=O)O)cc1)c1ccc2c(c1)C(C)(C)CCC2(C)C [NCGC00016015-10] | -10% | -1.4 | 4.40 | – | – | – | –
2 | O=c1c(-c2ccc(O)cc2)coc2cc(O)ccc12 [NCGC00261097-01] | -11% | -2.4 | 4.25 | – | – | – | –
3 | Nc1ccccc1N [NCGC00090885-03] | – | – | – | -77% | 3.95 | – | –
4 | Cl.O=c1cc(N2CCOCC2)oc2c(-c3ccccc3)cccc12 [NCGC00261395-01] | – | – | – | -52% | 4.30 | – | Curve Class [2]: -2.2
5 | Cc1c(C)c2c(c(C)c1OC(=O)CCC(=O)OCCO)CC[C@@](C)(CCC[C@H](C)CCC[C@H](C)CCCC(C)C)O2 [NCGC00183103-01] | – | – | – | -36% | 4.10 | -3 | –
6 | CC1CC2(O)OC(=O)C3=C2C(CCC3)[C@@]12C[C@@H](c1ccoc1)OC2=O (some centres unmarked) [NCGC00385045-01] | -23% | -2.4 | 4.50 | – | – | – | –
7 | N#Cc1ccc(S(=O)(=O)Nc2cnccc2C(=O)Nc2nc(-c3ccccc3)cs2)cc1.O=C(O)C(F)(F)F [NCGC00344937-01] | – | – | – | -38% | 4.10 | – | Curve Class [2]: -2.4
8 | COC1=C(OC)C(=O)C(CCCCCCCCCCO)=C(C)C1=O [NCGC00160514-02] | – | – | – | -26% | 4.30 | -2.4 | –
9 | C=C1C(=O)O[C@@H]2C3=C(C)CCC[C@]3(C)CC[C@@]12O [NCGC00385722-01] | -30% | -2.4 | 4.30 | – | – | – | –
10 | Cc1c(-c2cccc3c(CCCOc4cccc5ccccc45)c(C(=O)O)n(Cc4cccnc4)c23)c(COc2ccc(N3CCN(S(=O)(=O)N(C)C)CC3)cc2)nn1C [NCGC00347282-01] | – | – | – | -34% | 4.52 | -3 | –
11 | O=C(Nc1ccc(S(=O)(=O)N2CCOCC2)cc1)c1ccc(CN2CCCc3ccccc32)cc1.O=C(O)C(F)(F)F [NCGC00348355-01] | – | – | – | -15% | 4.30 | -2.4 | –
12 | COc1cc([C@H]2Oc3cc([C@H]4Oc5cc(O)cc(O)c5C(=O)[C@@H]4O)ccc3O[C@@H]2CO)ccc1O [NCGC00091057-06] | – | – | – | -74% | 4.55 | – | Curve Class [2]: -2.2
13 | Cc1cnc(-c2ccccc2C(C)C)nc1NC(C)c1ccc(-c2cccnc2)cc1.O=C(O)C(F)(F)F (centres unmarked) [NCGC00253889-01] | – | – | – | -56% | 4.25 | – | Curve Class [2]: -2.4
14 | O=C(Nc1ccc([N+](=O)[O-])cc1Cl)c1cc(Cl)ccc1O [NCGC00015735-08] | -12% | -2.4 | 4.20 | – | – | – | –
15 | COCc1ccc(-c2nn(Cc3ccccc3)c3ccccc23)o1 [NCGC00479273-01] | – | – | – | -37% | 4.25 | -2.4 | –
16 | CC(C)c1ccc2c(c1)c(SC(C)(C)C)c(CC(C)(C)C(=O)O)n2Cc1ccc(Cl)cc1 [NCGC00162249-03] | -29% | -1.4 | 4.80 | – | – | – | –
17 | CC1(C)CCC(CN2CCN(c3ccc(C(=O)NS(=O)(=O)c4ccc(NCC5CCOCC5)c([N+](=O)[O-])c4)c(Oc4cnc5[nH]ccc5c4)c3)CC2)=C(c2ccc(Cl)cc2)C1 [NCGC00345789-10] | -26% | -2.4 | 4.40 | – | – | – | –
18 | COc1ccccc1N1CCNCC1.Cl [NCGC00015906-04] | – | – | – | -80% | 4.10 | – | Curve Class [2]: -3
19 | CCCCn1nc(-c2ccccc2)c2nc3ccccc3nc21.O=C(O)C(F)(F)F [NCGC00351644-02] | – | – | – | -127% | 4.60 | -1.1 | –
20 | O=C1C(SCCO)=C(SCCO)C(=O)c2ccccc21 [NCGC00015729-08] | – | – | – | -77% | 4.35 | – | Curve Class [2]: -2.2
21 | C[C@]12CC[C@@H]3c4ccc(OC(=O)N(CCCl)CCCl)cc4CC[C@H]3[C@@H]1CC[C@@H]2O [NCGC00164581-02] | – | – | – | -41% | 4.30 | -2.2 | –
22 | CC1=NN(c2ccccc2)C(=O)C1 [NCGC00018218-10] | – | – | – | -46% | 4.30 | -2.2 | –
23 | C[C@](N)(Cc1ccc(O)c(O)c1)C(=O)O [NCGC00024667-14] | – | – | – | -24% | 4.05 | -2.4 | –
24 | Oc1c(I)cc(Cl)c2cccnc12 [NCGC00016391-13] | – | – | – | -32% | 4.25 | -2.4 | –

Row | Structure (SMILES) | Efficacy (%) [1] | Curve Class [1] | pIC50 [1] | Efficacy (%) [2] | pIC50 [2] | Curve Class [3] | other results
25 | O=C(O)C(F)(F)F.O=C(O)c1csc(-n2nc(-c3ccc(F)c(Cc4ccccc4)c3)cc2O)n1 [NCGC00356005-01] | – | – | – | -47% | 4.10 | -2.2 | –
26 | C=C1CC(=O)C2OC2(C)CC2OC(=O)C(=C)C2C(O)C1OC(=O)/C(C)=C\C (centres unmarked) [NCGC00381057-01] | -21% | -1.4 | 4.85 | – | – | – | –
27 | COc1cccc2c1C(=O)c1c(O)c3c(c(O)c1C2=O)C[C@@](O)(C(=O)CO)C[C@@H]3O[C@H]1C[C@H](N)[C@H](O[C@@H]2CCCCO2)[C@H](C)O1 [NCGC00167982-02] | – | – | – | -42% | 5.11 | – | –
28 | CC(C)NCC(O)c1cc(O)cc(O)c1.CC(C)NCC(O)c1cc(O)cc(O)c1.O=S(=O)(O)O (centres unmarked) [NCGC00015655-09] | – | – | – | -51% | 4.25 | -2.4 | –
29 | C#CCCC(=O)Nc1sc2c(c1-c1nc3ccccc3s1)CCN(C(C)C)C2.O=C(O)C(F)(F)F [NCGC00185086-01] | – | – | – | -24% | 5.46 | – | Curve Class [2]: -1.4
30 | Cc1ccc(C)n1-c1cccc(C(=O)O)c1.O=C(O)C(F)(F)F [NCGC00060597-04] | – | – | – | – | – | – | Efficacy (%) (qHTS FP screen hits, Table S2): -32%; pIC50 (qHTS FP screen hits, Table S2): 4.49
31 | CC(C)=CCOc1ccc(/C=C/C(=O)c2ccc(OCC=C(C)C)cc2OCC(=O)O)cc1 [NCGC00159481-03] | – | – | – | -94% | 4.00 | – | Curve Class [2]: -3
32 | O=[N+]([O-])c1cccc2c(Br)n[nH]c12 [NCGC00015143-10] | -16% | -2.4 | 4.10 | – | – | – | –
33 | COc1cc(SC)ccc1C(=O)N1CCC(Cc2ccccc2)CC1 [NCGC00167816-02] | -11% | -1.4 | 5.49 | – | – | – | –
34 | Cc1ccc(S(=O)(=O)Nc2ccc(OC(F)(F)F)cc2C(=O)Nc2nc(-c3ccccc3)cs2)cc1.O=C(O)C(F)(F)F [NCGC00262991-01] | – | – | – | -27% | 4.35 | – | Curve Class [2]: -2.4
35 | Ic1ccccc1CNC1C2CCN(CC2)C1C(c1ccccc1)c1ccccc1.O=C(O)C(=O)O (centres unmarked) [NCGC00015587-03] | -20% | -3 | 4.20 | – | – | – | –
36 | CCOc1ccc(Cc2nc(-c3c(C)nc4ccccn34)cs2)cc1 [NCGC00485083-01] | -29% | -2.4 | 4.35 | – | – | – | –
37 | CC(=O)c1c(O)c(C)c(O)c(Cc2c(O)c3c(c(C(=O)/C=C/c4ccccc4)c2O)OC(C)(C)C=C3)c1O [NCGC00025228-08] | – | – | – | -45% | 4.55 | – | Curve Class [2]: -1.2
38 | COc1cccc(S(=O)(=O)Nc2cnccc2C(=O)Nc2nc(-c3ccccc3)cs2)c1.O=C(O)C(F)(F)F [NCGC00344906-01] | – | – | – | -33% | 4.30 | -2.2 | –
39 | O=C(O)C(F)(F)F.O=C1c2ccccc2NC(c2ccc(-c3ccc(C(F)(F)F)cc3)o2)N1O (centres unmarked) [NCGC00183389-01] | – | – | – | -24% | 4.25 | – | Curve Class [2]: -2.4
40 | Cc1cc(N2CCN(c3ccccc3)CC2)nc(-n2nc(C)cc2C)n1.O=C(O)C(F)(F)F [NCGC00067399-02] | – | – | – | -30% | 4.25 | – | Curve Class [2]: -2.4
41 | Oc1ccc2c3c1O[C@H]1c4[nH]c5c(N=C=S)cccc5c4C[C@@]4(O)[C@@H](C2)N(CC2CC2)CC[C@]314 [NCGC00485321-01] | -30% | -2.4 | 4.00 | – | – | – | –
42 | CCCCCN(CCCCC)C(=O)C(CCC(=O)O)NC(=O)c1ccc(Cl)c(Cl)c1 (centres unmarked) [NCGC00162232-03] | -19% | -2.2 | 4.35 | – | – | – | –
43 | CN(C)CCCNC(=O)c1ccc(-c2cc(O)c3ncccc3c2)cc1 [NCGC00183808-07] | – | – | – | -38% | 4.52 | – | –
44 | O=C(O)C(F)(F)F.O=S(=O)(Nc1ccc(O)c2ncccc12)c1ccccc1F [NCGC00184887-02] | – | – | – | -48% | 4.10 | -3 | –
45 | Cc1ccccc1NC(=O)Nc1ccc(CN2C(=O)N([C@@H](CC(C)C)C(=O)N[C@@H](CC(=O)O)c3ccccc3)C(=O)C2(C)C)cc1 [NCGC00386592-01] | -28% | -2.4 | 4.25 | – | – | – | –
46 | Nc1ccc2c3c(cccc13)C(=O)NC2=O [NCGC00015035-07] | – | – | – | -70% | 5.60 | – | Curve Class [2]: -1.2
47 | COc1ccc(-c2csc(NC(=O)c3ccncc3NS(=O)(=O)c3ccc(C)cc3)n2)cc1.O=C(O)C(F)(F)F [NCGC00319009-01] | – | – | – | -53% | 4.25 | -2.4 | –
48 | CO/N=C(\C(=O)N[C@@H]1C(=O)N2C(C(=O)O)=C(Cn3nnc(C)n3)CS[C@H]12)c1csc(N)n1 [NCGC00183016-01] | – | – | – | -171% | 4.05 | – | Curve Class [2]: -3
